Our source for the IC50 values is ChEMBL document CHEMBL1649360, “β-carboline alkaloids from Stellaria dichotoma var. lanceolata and their anti-inflammatory activity” (J Nat Prod, 2010).

The test system of this test is RAW264.7. Nature of the test: Antiinflammatory activity in mouse RAW264.7 cells assessed as inhibition of LPS-stimulated nitric oxide production treated for 2 hrs before LPS challenge measured after 24 hrs […]. Format: functional, cell-based.
As to `COC(=O)/C=C/NC(=O)c1cc2c([nH]c3ccccc32)c(C(C)=O)n1` [DICHOTOMIDE III], the IC50 is 17.3 µM.

Consider `COC(=O)c1cc2c([nH]c3ccccc32)c(C(C)=O)n1`, for which the IC50 came out at 17.9 µM.

As to `CC(=O)c1nc(C(N)=O)cc2c1[nH]c1ccccc12` [STELLARINES A], the IC50 was 19.3 µM. Regarding `C/C=C(/C)C(=O)O[C@@H](C)c1nc(C(=O)N/C=C/C(=O)OC)cc2c1[nH]c1ccccc12` [DICHOTOMIDE X], the IC50 stood at 11.3 µM.

On to `COC(=O)/C=C\NC(=O)c1cc2c([nH]c3ccccc32)c(C(C)=O)n1` [STELLARINES B], for which the IC50 was found to be 18.6 µM. For `N=C(N)NN` [PIMAGEDINE], the IC50 is 4.6 µM.
